Source: publication PMC7948398, “Rapid kinetics reveal surprising flavin chemistry in bifurcating electron transfer flavoprotein from Acidaminococcus fermentans” (The Journal of Biological Chemistry, 2020)

Target: T1, EtfAB; EtfaB (EtfAB from which α-FAD was removed) (Acidaminococcus fermentans, UniProt D2RIQ2+D2RIQ3)
T1 construct: gene Acfer_0555; recombinant from pET-11a by autoinduction; AB heterodimer, 66 kDa; EtfAB holds α-FAD and β-FAD; EtfaB made by removing FAD from the A-subunit (phenyl Sepharose, KBr); with Electron transfer flavoprotein subunit alpha
T1 sequence (D2RIQ2 1-263): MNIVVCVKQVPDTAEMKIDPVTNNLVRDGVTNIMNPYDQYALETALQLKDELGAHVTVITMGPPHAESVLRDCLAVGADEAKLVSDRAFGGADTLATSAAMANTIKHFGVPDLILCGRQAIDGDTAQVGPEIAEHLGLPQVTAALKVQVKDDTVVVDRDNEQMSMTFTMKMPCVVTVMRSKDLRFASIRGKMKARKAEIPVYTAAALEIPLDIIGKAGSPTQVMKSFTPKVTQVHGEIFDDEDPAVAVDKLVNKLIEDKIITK
T1 sequence (D2RIQ3 1-340): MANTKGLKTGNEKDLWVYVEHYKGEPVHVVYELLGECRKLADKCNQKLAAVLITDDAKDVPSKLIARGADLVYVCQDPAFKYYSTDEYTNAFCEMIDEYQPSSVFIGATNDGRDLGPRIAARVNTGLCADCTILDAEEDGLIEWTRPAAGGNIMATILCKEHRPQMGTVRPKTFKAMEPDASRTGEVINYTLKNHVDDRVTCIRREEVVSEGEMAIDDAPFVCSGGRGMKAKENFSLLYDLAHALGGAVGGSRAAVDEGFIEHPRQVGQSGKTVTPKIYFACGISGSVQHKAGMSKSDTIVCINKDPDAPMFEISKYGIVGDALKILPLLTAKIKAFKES
Assay: anaerobic stopped-flow, kobs at […] nm versus [NADH]
Format: biochemical
Conditions: EtfaB form (β-FAD only, α-FAD removed), slow-reacting minor population (~16%); 50 mM potassium phosphate pH 7.0, 4 °C; site at β-FAD

NC(=O)C1=CN([C@@H]2O[C@H](COP(=O)(O)OP(=O)(O)OC[C@H]3O[C@@H](n4cnc5c(N)ncnc54)[C@H](O)[C@@H]3O)[C@@H](O)[C@H]2O)C=CC1 [NADH]
Kd: 3.8 ± 0.2 mM
